In the supplement of paper PMC10307832:

Experiments:
Experiment in all cases: relative viability (nuclei count vs DMSO), 5 days (fraction); higher = more cells survive
[1] = compound: CN1C=C(C2=CC=CC=C21)/C=C\3/C4=C(C=CC=N4)NC3=O + C[C@@H](Oc1cc(-c2cnn(C3CCNCC3)c2)cnc1N)c1c(Cl)ccc(F)c1Cl [Crizotinib] (partner 1 µM)
Summary of the method: (§1)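 Lung cancer cell lines were seeded in 1536-well plates and dosed by pin tool the next day, with either a single drug or a fixed anchor-drug dose combined with five library-drug doses (not always all listed) spaced in √10 steps. Five days later, one step fixed the cells and stained their nuclei (final 0.05% Triton X-100, 1% formaldehyde, 1 ug/ml Hoechst), and nuclei were counted on 4× images. Relative viability is the nuclei count in treated wells divided by the count in vehicle wells, and each value is the median of duplicate plates.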

[2] = compound: CN1C=C(C2=CC=CC=C21)/C=C\3/C4=C(C=CC=N4)NC3=O + CCNC(=O)c1noc(-c2cc(C(C)C)c(O)cc2O)c1-c1ccc(CN2CCOCC2)cc1 [Luminespib] (partner 0.01 µM)
Summary of the method: as §1

Trametinib + Dasatinib = compound: CC(=O)Nc1cccc(-n2c(=O)n(C3CC3)c(=O)c3c(Nc4ccc(I)cc4F)n(C)c(=O)c(C)c32)c1 [Trametinib] + Cc1nc(Nc2ncc(C(=O)Nc3c(C)cccc3Cl)s2)cc(N2CCN(CCO)CC2)n1 [Dasatinib] (partner 0.075 µM)
Summary of the method: as §1

Trametinib + Pemetrexed = compound: CC(=O)Nc1cccc(-n2c(=O)n(C3CC3)c(=O)c3c(Nc4ccc(I)cc4F)n(C)c(=O)c(C)c32)c1 [Trametinib] + Nc1nc2[nH]cc(CCc3ccc(C(=O)N[C@@H](CCC(=O)O)C(=O)O)cc3)c2c(=O)[nH]1 [Pemetrexed] (partner 0.2 µM)
Summary of the method: as §1

LCLC-97TM1 showed a relative viability ([1]; first compound 0.02 µM) of 0.232, a relative viability ([1]; first compound 0.6325 µM) of 0.331 and a relative viability ([1]; first compound 2 µM) of 0.419. It also gave a relative viability ([2]; first compound 0.02 µM) of 0.669, a relative viability ([2]; first compound 0.06325 µM) of 0.611 and a relative viability ([2]; first compound 0.2 µM) of 0.82. It also gave a relative viability ([2]; first compound 0.6325 µM) of 0.809, a relative viability ([2]; first compound 2 µM) of 0.944 and a relative viability (Trametinib + Dasatinib; first compound 0.0025 µM) of 0.816. It also gave a relative viability (Trametinib + Dasatinib; first compound 0.007906 µM) of 0.44, a relative viability (Trametinib + Dasatinib; first compound 0.025 µM) of 0.381 and a relative viability (Trametinib + Dasatinib; first compound 0.07906 µM) of 0.125. The relative viability (Trametinib + Dasatinib; first compound 0.25 µM) was 0.171, the relative viability (Trametinib + Pemetrexed; first compound 0.0025 µM) was 0.188 and the relative viability (Trametinib + Pemetrexed; first compound 0.007906 µM) was 0.238. It also gave a relative viability (Trametinib + Pemetrexed; first compound 0.025 µM) of 0.181, a relative viability (Trametinib + Pemetrexed; first compound 0.07906 µM) of 0.176 and a relative viability (Trametinib + Pemetrexed; first compound 0.25 µM) of 0.152.
In the case of NCI-H1915, the relative viability ([1]; first compound 0.02 µM) is reported as 0.767, the relative viability ([1]; first compound 0.06325 µM) is reported as 0.873 and the relative viability ([1]; first compound 0.2 µM) is reported as 0.87. For the same cell line, the relative viability ([1]; first compound 0.6325 µM) was 1.07, the relative viability ([1]; first compound 2 µM) was 0.973 and the relative viability ([2]; first compound 0.02 µM) was 0.728. It also gave a relative viability ([2]; first compound 0.06325 µM) of 0.816, a relative viability ([2]; first compound 0.2 µM) of 0.894 and a relative viability ([2]; first compound 0.6325 µM) of 0.431. The relative viability ([2]; first compound 2 µM) was 0.954, the relative viability (Trametinib + Dasatinib; first compound 0.0025 µM) was 0.273 and the relative viability (Trametinib + Dasatinib; first compound 0.007906 µM) was 0.203. It also gave a relative viability (Trametinib + Dasatinib; first compound 0.025 µM) of 0.196, a relative viability (Trametinib + Dasatinib; first compound 0.07906 µM) of 0.109 and a relative viability (Trametinib + Dasatinib; first compound 0.25 µM) of 0.0747. For the same cell line, the relative viability (Trametinib + Pemetrexed; first compound 0.0025 µM) was 0.492, the relative viability (Trametinib + Pemetrexed; first compound 0.007906 µM) was 0.521 and the relative viability (Trametinib + Pemetrexed; first compound 0.025 µM) was 0.313. For the same cell line, the relative viability (Trametinib + Pemetrexed; first compound 0.07906 µM) was 0.262 and the relative viability (Trametinib + Pemetrexed; first compound 0.25 µM) was 0.216.
Work on NCI-H3122 yielded a relative viability ([1]; first compound 0.02 µM) of 0.226, a relative viability ([1]; first compound 0.06325 µM) of 0.231 and a relative viability ([1]; first compound 0.2 µM) of 0.275. The relative viability ([1]; first compound 0.6325 µM) was 0.29, the relative viability ([1]; first compound 2 µM) was 0.28 and the relative viability ([2]; first compound 0.02 µM) was 0.0819. For the same cell line, the relative viability ([2]; first compound 0.06325 µM) was 0.0768, the relative viability ([2]; first compound 0.2 µM) was 0.0923 and the relative viability ([2]; first compound 0.6325 µM) was 0.0892. It also gave a relative viability ([2]; first compound 2 µM) of 0.0964, a relative viability (Trametinib + Dasatinib; first compound 0.0025 µM) of 0.767 and a relative viability (Trametinib + Dasatinib; first compound 0.007906 µM) of 0.512. For the same cell line, the relative viability (Trametinib + Dasatinib; first compound 0.025 µM) was 0.13, the relative viability (Trametinib + Dasatinib; first compound 0.07906 µM) was 0.144 and the relative viability (Trametinib + Dasatinib; first compound 0.25 µM) was 0.146. The relative viability (Trametinib + Pemetrexed; first compound 0.0025 µM) was 0.187, the relative viability (Trametinib + Pemetrexed; first compound 0.007906 µM) was 0.183 and the relative viability (Trametinib + Pemetrexed; first compound 0.025 µM) was 0.166. It also gave a relative viability (Trametinib + Pemetrexed; first compound 0.07906 µM) of 0.149 and a relative viability (Trametinib + Pemetrexed; first compound 0.25 µM) of 0.149.
With NCI-H1650 the relative viability ([1]; first compound 0.02 µM) was 0.908, the relative viability ([1]; first compound 0.06325 µM) was 0.889 and the relative viability ([1]; first compound 0.2 µM) was 0.856. The relative viability ([1]; first compound 0.6325 µM) was 1.06, the relative viability ([1]; first compound 2 µM) was 1.05 and the relative viability ([2]; first compound 0.02 µM) was 0.19. The relative viability ([2]; first compound 0.06325 µM) was 0.183, the relative viability ([2]; first compound 0.2 µM) was 0.195 and the relative viability ([2]; first compound 0.6325 µM) was 0.203. The relative viability ([2]; first compound 2 µM) was 0.207, the relative viability (Trametinib + Dasatinib; first compound 0.0025 µM) was 0.337 and the relative viability (Trametinib + Dasatinib; first compound 0.007906 µM) was 0.368. It also gave a relative viability (Trametinib + Dasatinib; first compound 0.025 µM) of 0.344, a relative viability (Trametinib + Dasatinib; first compound 0.07906 µM) of 0.298 and a relative viability (Trametinib + Dasatinib; first compound 0.25 µM) of 0.16. It also gave a relative viability (Trametinib + Pemetrexed; first compound 0.0025 µM) of 0.388, a relative viability (Trametinib + Pemetrexed; first compound 0.007906 µM) of 0.324 and a relative viability (Trametinib + Pemetrexed; first compound 0.025 µM) of 0.314. The relative viability (Trametinib + Pemetrexed; first compound 0.07906 µM) was 0.329 and the relative viability (Trametinib + Pemetrexed; first compound 0.25 µM) was 0.216.
Cell Line NCI-H1993 has a relative viability ([1]; first compound 0.02 µM) of 0.726, a relative viability ([1]; first compound 0.06325 µM) of 0.816 and a relative viability ([1]; first compound 0.2 µM) of 0.741. It also gave a relative viability ([1]; first compound 0.6325 µM) of 0.868, a relative viability ([1]; first compound 2 µM) of 0.87 and a relative viability ([2]; first compound 0.02 µM) of 0.828. The relative viability ([2]; first compound 0.06325 µM) was 0.686, the relative viability ([2]; first compound 0.2 µM) was 0.813 and the relative viability ([2]; first compound 0.6325 µM) was 0.67. It also gave a relative viability ([2]; first compound 2 µM) of 0.369, a relative viability (Trametinib + Dasatinib; first compound 0.0025 µM) of 0.51 and a relative viability (Trametinib + Dasatinib; first compound 0.007906 µM) of 0.521. For the same cell line, the relative viability (Trametinib + Dasatinib; first compound 0.025 µM) was 0.505, the relative viability (Trametinib + Dasatinib; first compound 0.07906 µM) was 0.521 and the relative viability (Trametinib + Dasatinib; first compound 0.25 µM) was 0.551. For the same cell line, the relative viability (Trametinib + Pemetrexed; first compound 0.0025 µM) was 0.511, the relative viability (Trametinib + Pemetrexed; first compound 0.007906 µM) was 0.566 and the relative viability (Trametinib + Pemetrexed; first compound 0.025 µM) was 0.543. For the same cell line, the relative viability (Trametinib + Pemetrexed; first compound 0.07906 µM) was 0.543 and the relative viability (Trametinib + Pemetrexed; first compound 0.25 µM) was 0.453.
NCI-H2405 showed a relative viability ([1]; first compound 0.02 µM) of 0.769, a relative viability ([1]; first compound 0.06325 µM) of 0.832 and a relative viability ([1]; first compound 0.6325 µM) of 0.829. For the same cell line, the relative viability ([1]; first compound 2 µM) was 0.821, the relative viability ([2]; first compound 0.02 µM) was 0.809 and the relative viability ([2]; first compound 0.06325 µM) was 0.603. The relative viability ([2]; first compound 0.2 µM) was 0.629, the relative viability ([2]; first compound 0.6325 µM) was 0.738 and the relative viability ([2]; first compound 2 µM) was 0.74. For the same cell line, the relative viability (Trametinib + Dasatinib; first compound 0.0025 µM) was 0.209, the relative viability (Trametinib + Dasatinib; first compound 0.007906 µM) was 0.187 and the relative viability (Trametinib + Dasatinib; first compound 0.025 µM) was 0.19. The relative viability (Trametinib + Dasatinib; first compound 0.07906 µM) was 0.173, the relative viability (Trametinib + Dasatinib; first compound 0.25 µM) was 0.183 and the relative viability (Trametinib + Pemetrexed; first compound 0.0025 µM) was 0.995. For the same cell line, the relative viability (Trametinib + Pemetrexed; first compound 0.007906 µM) was 0.947, the relative viability (Trametinib + Pemetrexed; first compound 0.025 µM) was 0.464 and the relative viability (Trametinib + Pemetrexed; first compound 0.25 µM) was 0.554.
In the case of NCI-H661, the relative viability ([1]; first compound 0.02 µM) is reported as 1.07, the relative viability ([1]; first compound 0.06325 µM) is reported as 1.01 and the relative viability ([1]; first compound 0.2 µM) is reported as 1.11. It also gave a relative viability ([1]; first compound 0.6325 µM) of 1.04, a relative viability ([1]; first compound 2 µM) of 1.14 and a relative viability ([2]; first compound 0.02 µM) of 1.06. It also gave a relative viability ([2]; first compound 0.06325 µM) of 0.875, a relative viability ([2]; first compound 0.2 µM) of 0.946 and a relative viability ([2]; first compound 0.6325 µM) of 0.973. For the same cell line, the relative viability ([2]; first compound 2 µM) was 0.917, the relative viability (Trametinib + Dasatinib; first compound 0.0025 µM) was 0.816 and the relative viability (Trametinib + Dasatinib; first compound 0.007906 µM) was 0.796. The relative viability (Trametinib + Dasatinib; first compound 0.025 µM) was 0.565, the relative viability (Trametinib + Dasatinib; first compound 0.07906 µM) was 0.481 and the relative viability (Trametinib + Dasatinib; first compound 0.25 µM) was 0.513. It also gave a relative viability (Trametinib + Pemetrexed; first compound 0.0025 µM) of 0.882, a relative viability (Trametinib + Pemetrexed; first compound 0.007906 µM) of 0.889 and a relative viability (Trametinib + Pemetrexed; first compound 0.025 µM) of 0.821. It also gave a relative viability (Trametinib + Pemetrexed; first compound 0.07906 µM) of 0.753 and a relative viability (Trametinib + Pemetrexed; first compound 0.25 µM) of 0.753.
